Laboratory results published in patent US10538497B2, “Compounds as indoleamine 2,3-dioxygenase inhibitors” (Merck Sharp & Dohme Corp., priority 2015, dated 2020).

What was measured:
IDO1 [1] = biological target: T1, IDO1 (Homo sapiens (Human), UniProt P14902); assay: IDO1 Cellular Assay in Frozen HEK293 Cells Transiently Transfected with Human IDO1; assay type: cell-based; conditions: read-out: IDO1 HEK293 Cell Assay, IC50
IDO1 [2] = biological target: T1, IDO1; assay: IDO1 Cellular Assay in Hela Cells Stimulated with IFNγ; assay type: cell-based; conditions: Hela cells stimulated with IFNγ 100 ng/mL; read-out: IDO1 HELA Cell Assay, IC50
IDO1 [3] = biological target: T1, IDO1; assay: IDO1 Enzyme Assay; conditions: HIS-tagged recombinant IDO1, 40 nM
[4] = HEK293 cells transiently transfected with human IDO1
[5] = read-out: IDO1 Enzyme Assay, IC50

T1 sequence (P14902 whole entry): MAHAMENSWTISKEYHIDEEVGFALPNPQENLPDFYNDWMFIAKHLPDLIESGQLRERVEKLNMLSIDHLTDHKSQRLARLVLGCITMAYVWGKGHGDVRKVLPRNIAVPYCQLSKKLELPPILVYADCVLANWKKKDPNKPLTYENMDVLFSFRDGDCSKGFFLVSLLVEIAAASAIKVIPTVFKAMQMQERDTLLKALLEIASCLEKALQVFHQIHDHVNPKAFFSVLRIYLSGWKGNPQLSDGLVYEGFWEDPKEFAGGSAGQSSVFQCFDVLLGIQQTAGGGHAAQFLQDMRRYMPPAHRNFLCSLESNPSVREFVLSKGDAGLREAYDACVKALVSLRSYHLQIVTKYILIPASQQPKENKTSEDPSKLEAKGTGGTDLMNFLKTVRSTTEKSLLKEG

Row | Compound | IC50 (IDO1 [1]; [4]) | IC50 (IDO1 [2]) | IC50 (IDO1 [3]; [5]) | IC50 (IDO1 [1]) | IC50 (IDO1 [3]; IDO1 Enzyme Assay, IC50, nM)
1 | CNC(=O)N1CC(Sc2nonc2/C(=N/O)Nc2ccc(F)c(Br)c2)C1 [Example 81, 3-({4-[N-(3-bromo-4-fluorophenyl)-N′-hydroxycarbamimidoyl]-1,2,5-oxadiazol-3-yl}sulfanyl)-N-methylazetidine-1-carboxamide] | 0.0369 µM | 0.0429 µM | 41.8 nM |  | 
2 | O=S1(=O)CCC(Sc2nonc2/C(=N/O)Nc2ccc(F)c(Br)c2)CC1 [Example 82, N-(3-bromo-4-fluorophenyl)-4-[(1,1-dioxidotetrahydro-2H-thiopyran-4-yl)sulfanyl]-N′-hydroxy-1,2,5-oxadiazole-3-carboximidamide] | 0.0781 µM | 0.0406 µM | 102 nM |  | 
3 | O=C1CC[C@H](CSc2nonc2/C(=N/O)Nc2ccc(F)c(Br)c2)N1 [Example 83, N-(3-bromo-4-fluorophenyl)-N′-hydroxy-4-({[(2R)-5-oxopyrrolidin-2-yl]methyl}sulfanyl)-1,2,5-oxadiazole-3-carboximidamide] | 0.0115 µM | 0.0759 µM | 22.8 nM |  | 
4 | N#C/N=C(\N)NCCSc1nonc1/C(=N/O)Nc1ccc(F)c(Br)c1 [Example 85, N-(3-bromo-4-fluorophenyl)-4-{[2-(N″- cyanocarbamimidamido)ethyl]sulfanyl}-N′-hydroxy-1,2,5-oxadiazole-3-carboximidamide] | 0.0357 µM | 0.0169 µM | 39.3 nM |  | 
5 | CC(=O)N1CCC(Sc2nonc2/C(=N/O)Nc2ccc(F)c(Br)c2)CC1 [Example 87, 4-[(1-acetylpiperidin-4-yl)sulfanyl]-N-(3-bromo-4-fluorophenyl)-N′-hydroxy-1,2,5-oxadiazole-3-carboximidamide] | 0.133 µM | 0.07 µM | 99.7 nM |  | 
6 | O=c1c(NCCSc2nonc2/C(=N/O)Nc2ccc(F)c(Br)c2)c(N2CCOCC2)c1=O [Example 91, N-(3-bromo-4-fluorophenyl)-N′-hydroxy-4-({2-[(2-morpholin-4-yl-3,4-dioxocyclobut-1-en-1-yl)amino]ethyl}sulfanyl)-1,2,5-oxadiazole-3-carboximidamide] | 0.367 µM | 0.357 µM | 57.4 nM |  | 
7 | O=c1[nH]nc(CSc2nonc2/C(=N/O)Nc2ccc(F)c(Br)c2)cc1C(F)(F)F [Example 92, N-(3-bromo-4-fluorophenyl)-N′-hydroxy-4-({[6-oxo-5-(trifluoromethyl)-1,6-dihydropyridazin-3-yl]methyl}sulfanyl)-1,2,5-oxadiazole-3-carboximidamide] | 0.364 µM | 0.145 µM | 99.5 nM |  | 
8 | O=c1c(NCCSc2nonc2/C(=N/O)Nc2ccc(F)c(Br)c2)c(N2CCCCC2)c1=O [Example 93, N-(3-bromo-4-fluorophenyl)-4-({2-[(3,4-dioxo-2-piperidin-1-ylcyclobut-1-en-1-yl)amino]ethyl}sulfanyl)-N′-hydroxy-1,2,5-oxadiazole-3-carboximidamide] | 0.404 µM | 0.249 µM | 39 nM |  | 
9 | CC(C)Nc1c(NCCSc2nonc2/C(=N/O)Nc2ccc(F)c(Br)c2)c(=O)c1=O [Example 94, N-(3-bromo-4-fluorophenyl)-N′-hydroxy-4-{[2-({2-[(1-methylethyl)amino]-3,4-dioxocyclobut-1-en-1-yl}amino)ethyl]sulfanyl}-1,2,5-oxadiazole-3-carboximidamide] | 0.193 µM | 0.073 µM | 26.8 nM |  | 
10 | NC(=O)CCSc1nonc1/C(=N/O)Nc1ccc(F)c(Br)c1 [Example 96, 3-({4-[N-(3-bromo-4-fluorophenyl)-N′-hydroxycarbamimidoyl]-1,2,5-oxadiazol-3-yl}sulfanyl)propanamide] | 0.0329 µM | 0.0247 µM | 36.9 nM |  | 
11 | CC(C)OC(=O)[C@H](C)NP(=O)(CCSc1nonc1/C(=N/O)Nc1ccc(F)c(Br)c1)N[C@@H](C)C(=O)OC(C)C [Example 97, 1-methylethyl (2S,6S)-4-[2-({4-[N-(3-bromo-4-fluorophenyl)-N′-hydroxycarbamimidoyl]-1,2,5-oxadiazol-3-yl}sulfanyl)ethyl]-2,6,9-trimethyl-7-oxo-8-oxa-3,5-diaza-4-phosphadecan-1-oate 4-oxide] | 0.745 µM | 0.38 µM | 132 nM |  | 
12 | N/C(=C\[N+](=O)[O-])NCCSc1nonc1C(=NO)Nc1ccc(F)c(Br)c1 [Example 99, 4-[(2-{[(E)-1-amino-2-nitroethenyl]amino}ethyl)sulfanyl]-N-(3-bromo-4-fluorophenyl)-N′-hydroxy-1,2,5-oxadiazole-3-carboximidamide] | 0.231 µM | 0.195 µM | 84 nM |  | 
13 | COCCNP(=O)(CCSc1nonc1/C(=N/O)Nc1ccc(F)c(Br)c1)NCCOC [Example 100, 4-[(2-{bis[(2-methoxyethyl)amino]phosphoryl}ethyl)sulfanyl]-N-(3-bromo-4-fluorophenyl)-N′-hydroxy-1,2,5-oxadiaxole-3-carboximidamide] | 0.582 µM | 0.342 µM | 98.8 nM |  | 
14 | CNP(=O)(CCSc1nonc1/C(=N/O)Nc1ccc(F)c(Br)c1)NC [Example 103, 4-({2-[bis(methylamino)phosphoryl]ethyl}sulfanyl)-N-(3-bromo-4-fluorophenyl)-N′-hydroxy-1,2,5-oxadiazole-3-carboximidamide] |  | 0.0323 µM | 48.5 nM | 0.0845 µM | 
15 | CNC(=O)N1CCC(Sc2nonc2/C(=N/O)Nc2ccc(F)c(Br)c2)CC1 [Example 104, 4-({4-[N-(3-bromo-4-fluorophenyl)-N′-hydroxycarbamimidoyl]-1,2,5-oxadiazol-3-yl}sulfanyl)-N-methylpiperidine-1-carboxamide] | 0.269 µM | 0.353 µM | 169 nM |  | 
16 | COCCNC(=O)CCSc1nonc1/C(=N/O)Nc1ccc(F)c(Br)c1 [Example 106, 3-({4-[N-(3-bromo-4-fluorophenyl)-N′-hydroxycarbamimidoyl]-1,2,5-oxadiazol-3-yl}sulfanyl)-N-(2-methoxyethyl)propanamide] | 0.0787 µM | 0.558 µM | 30 nM |  | 
17 | O=C(CCSc1nonc1/C(=N/O)Nc1ccc(F)c(Br)c1)NCCO [Example 107, 3-({4-[N-(3-bromo-4-fluorophenyl)-N′-hydroxycarbamimidoyl]-1,2,5-oxadiazol-3-yl}sulfanyl)-N-(2-hydroxyethyl)propanamide] | 0.0431 µM | 0.0483 µM | 30.1 nM |  | 
18 | CCNC(=O)CSc1nonc1C(=NO)Nc1ccc(F)c(Br)c1 [Example 110, 2-({4-[N-(3-bromo-4-fluorophenyl)-N′-hydroxycarbamimidoyl]-1,2,5-oxadiazol-3-yl}sulfanyl)-N-ethylacetamide] | 0.0256 µM | 0.0543 µM |  |  | 48.5 nM
19 | CN(C)C(=O)CSc1nonc1C(=NO)Nc1ccc(F)c(Br)c1 [Example 111, 2-({4-[N-(3-bromo-4-fluorophenyl)-N′-hydroxycarbamimidoyl]-1,2,5-oxadiazol-3-yl}sulfanyl)-N,N-dimethylacetamide] | 0.446 µM | 0.685 µM |  |  | 59.6 nM
20 | O=C(CSc1nonc1C(=NO)Nc1ccc(F)c(Br)c1)NCCO [Example 112, 2-({4-[N-(3-bromo-4-fluorophenyl)-N′-hydroxycarbamimidoyl]-1,2,5-oxadiazol-3-yl}sulfanyl)-N-(2-hydroxyethyl)acetamide] | 0.04 µM | 0.0408 µM |  |  | 54.2 nM
